Assay results published in the NIST ThermoML archive (doi:10.1021/je060416d).

Settings: Liquid, Vibrating wire viscometry

C1CCCC1 [cyclopentane]
viscosity [mPa·s]
Settings | 273.15 K | 293.15 K | 298.15 K | 313.15 K | 333.15 K | 353.15 K
100 kPa | 0.5628 | 0.4413 | 0.4167 | – | – | –
10000 kPa | 0.6148 | 0.4827 | 0.4583 | 0.392 | 0.3247 | –
15000 kPa | – | – | – | – | – | 0.2868
30000 kPa | 0.7203 | 0.5708 | 0.5409 | 0.4646 | 0.3882 | 0.3291
40000 kPa | 0.7767 | 0.6167 | 0.5846 | – | – | –
45000 kPa | – | – | – | 0.5222 | 0.4364 | 0.3727
